Patent US20080090812A1 (priority 2004, published 2008)
Entries after “also recorded” stand apart in the source; their conditions may differ. Where a SMILES comes first, the peptide text is derived from it. The star is where a group is joined. Cbz = O=C(OCc1ccccc1)*; CH2F = FC*

Assays:
caspase-3 = experiment: SJG-136 induced caspase-3 activation in B-CLL cells (PhiPhiLux G1D2 substrate, flow cytometry); assay type: cell-based, human; details: inhibitor final concentration 2 μM, SJG-136-treated B-CLL cell cultures
Description: B-CLL cells were incubated at 37° C. in a humidified 5% carbon dioxide atmosphere in the presence of SJG-136 (10^−10−10^−7 M) or fludarabine (10^−7″10^−5 M) for 12, 24 and 48 h. Cells were then harvested by centrifugation and labeled with CD19 RPE-cy5 conjugated antibody. Subsequently the cells were incubated for 1 h at 37° C. in the presence of the PhiPhiLux™ G1D2 substrate (Calbiochem, Nottingham, UK). The substrate contains two fluorophores separated by a quenching linker sequence that is cleaved by active caspase-3. Once cleaved the resulting products fluoresce green and can be quantified using flow cytometry. In additional experiments the caspase-8 inhibitor, Z-IETD-FMK, or the caspase-9 inhibitor, Z-LEHD-FMK, (Cambridge Bioscience, Cambridge, UK) were added to SJG-136-treated cell cultures (final concentration 2 μM) in order to determine whether either of these inhibitors was able to abrogate the apoptotic effects of SJG-136 in B-CLL cells.

B-CLL cells [1] = experiment: Flow cytometry-based in vitro apoptosis assay (FSC/SSC, Annexin V) in primary B-CLL cells; assay type: cell-based, human; details: for mean LD50 in previously treated versus untreated patient sub-set: 34 patient cohort (FIG. 5); for degree of apoptosis in the cell culture: B-CLL cultures of the p53/GADD45 experiment (FIG. 4b)
Text: Peripheral blood samples from 34 patients with B-CLL (20 untreated and 14 treated) and 10 age-matched normal controls were obtained with the patients' informed consent. B-CLL was defined by clinical criteria as well as cellular morphology and the co-expression of CD19 and CD5 in lymphocytes simultaneously displaying restriction of light-chain rearrangement. Staging was based on the Binet classification system.^14 None of the previously treated patients had received therapy for at least three months prior to this study.
Freshly isolated peripheral blood lymphocytes (1×10^6/ml) were cultured in Eagles medium (Invitrogen, Paisley, UK) supplemented with 100 units/ml penicillin, 100 μg/ml streptomycin and 10% fetal calf serum. Lymphocytes were incubated at 37° C. in a humidified 5% carbon dioxide atmosphere in the presence of SJG-136 (10^−10−10^−7 M). […]
In this study changes in forward light scatter (FSC) and side light scatter (SSC) characteristics were used to quantify apoptotic and viable cell populations as described previously.^16-18 Typically, lymphocytes show a reduction in FSC (a function of cytoplasmic shrinkage) and an increase in SSC (due to increased granularity) when they undergo apoptosis.^19 The quantitation of apoptosis using an FSC/SSC gating strategy in conjunction with back gating of R-phycoerythrin cyanine 5 (RPE-cy5) labeled CD19+ (Dako) or R-phycoerythrin labeled CD3+ (Dako) lymphocytes allowed simultaneous acquisition of data in viable and apoptotic B-lymphocyte and T-lymphocyte sub-populations, respectively. All LD50 and LD90 values (the concentration of the relevant chemotheraputic agent required to kill 50% and 90% of cells respectively) were derived from the dose-response curves. Duplicate samples were assessed using fluorescein (FITC)-labeled Annexin V to confirm the presence of apoptotic cells in the cell cultures and to validate the FSC/SSC quantitation method.^20
The data obtained in these experiments were evaluated using the equal variance and paired Student's t-test, and correlation coefficients were calculated from least squares linear regression plots. LD50 values were calculated from line of best-fit analysis of the dose response curves. All statistical analyses were performed using Graphpad Prism 3.0 software (Graphpad Software Inc., San Diego, Calif.).
A flow cytometry-based in vitro apoptosis detection assay was used to determine whether SJG-136 could induce apoptotic cell death in B-CLL cells. The characteristic changes in the forward and side light scatter resulting from cellular shrinkage described previously were used to define apoptosis.^19 In addition, Annexin V labeling was also performed in order to verify the light scatter data.

B-CLL cells [2] = experiment: as above; assay type: cell-based, human; details: for mean LD50 in previously treated versus untreated patient sub-set: expanded cohort of 46 patients (FIG. 10)
phosphorylated p53 = experiment: Intracellular staining of phosphorylated p53 in B-CLL cells by flow cytometry; assay type: cell-based, human; details: 10 μM chlorambucil or 25 nM SJG-136, versus no-drug control (FIG. 4a)
Description: (§1) B-CLL cells were cultured for 4h and 48h in the presence or absence of one of the drugs under investigation. Cells were harvested by centrifugation and incubated with 10 μL of anti-CD19-RPE-cy5 conjugated antibody. Subsequently the cells were washed with phosphate buffered saline (PBS) at pH 7.2 and then prepared for intracellular staining of phosphorylated p53 and GADD45 (Santa Cruz Biotechnology, Santa Cruz, Calif.) using a commercially available kit (DAKO, Ely, UK). A FITC-labeled secondary antibody was added to the cells (DAKO) and after a final washing step the cells were resuspended in 0.5 mL of 1% paraformaldehyde prior to flow cytometric analysis using a FACScan flow cytometer (Becton Dickinson, Calif.).
(§2) Phosphorylation of p53 and expression of GADD45 were measured in control B-CLL cell samples with no cytotoxic agent added and in B-CLL cell samples in the presence of either chloambucil or SJG-136.

GADD45 = experiment: Intracellular staining of GADD45 expression in B-CLL cells by flow cytometry; assay type: cell-based, human; details: B-CLL cells versus no-drug control (FIG. 4b)
Description: as §1, §2

calf thymus DNA = details: after incubation for 18 hours at 37° C.; cited from earlier work
[3] = 34 B-CLL patient samples, 48 h exposure
[4] = expanded cohort, 46 B-CLL patient samples

SMILES	abrogation of SJG-136-induced caspase-3 activation by added caspase inhibitor (caspase-3)	mean LD50 in previously treated versus untreated patient sub-set (B-CLL cells [1])	mean LD50 in previously treated versus untreated patient sub-set (B-CLL cells [2])	degree of apoptosis in the cell culture (B-CLL cells [1])	phosphorylated p53 (p-p53) (phosphorylated p53)	GADD45 expression (GADD45)	also measured
COC(=O)CC[C@H](NC(=O)[C@H](CC(C)C)NC(=O)OCc1ccccc1)C(=O)N[C@@H](Cc1cnc[nH]1)C(=O)N[C@@H](CC(=O)OC)C(=O)CF [Z-LEHD-FMK] (Cbz-LE(OMe)HD(OMe)-CH2F)	partially abrogated						
CC[C@H](C)[C@H](NC(=O)OCc1ccccc1)C(=O)N[C@@H](CCC(=O)OC)C(=O)N[C@H](C(=O)N[C@@H](CC(=O)OC)C(=O)CF)[C@@H](C)O [Z-IETD.FMK, Z-IETD-FMK] (Cbz-IE(OMe)TD(OMe)-CH2F)	not						
Nc1nc(F)nc2c1ncn2[C@@H]1O[C@H](CO)[C@@H](O)[C@@H]1O [fludarabine, reference compound]		significantly higher mean LD50 value	significantly higher mean LD50 value				in vitro sensitivity of samples from two treated patients with known p53 mutation (B-CLL cells [1]; compared with remaining patient samples): high degree of in vitro resistance
O=C(O)CCCc1ccc(N(CCCl)CCCl)cc1 [chlorambucil]				significantly increased over the control experiment	an increase in phosphorylated p53	much higher; also recorded: marked increase in GADD45 expression	
C=C1C[C@H]2C=Nc3cc(OCCCOc4cc5c(cc4OC)C(=O)N4CC(=C)C[C@H]4C=N5)c(OC)cc3C(=O)N2C1 [SJG-136]		no effect	no effect	greater degree of apoptosis than either the control experiment or the chlorambucil experiment	none of the B-CLL cells (n=9) treated with SJG-136 phosphorylated p53	only slightly higher than in the control experiment	mean LD50 value (±SD) (B-CLL cells [1]; [3]): 9.06 nM; mean LD90 value (±SD) (B-CLL cells [1]; [3]): 43.09 nM; patient samples in which apoptosis was induced (B-CLL cells [1]; 34 patient cohort): all 34 patient samples; increase in the thermal denaturation of calf thymus DNA (calf thymus DNA): 33.6 °C; patient samples in which apoptosis was induced (B-CLL cells [2]; 46 patient cohort): all 46 patient samples; mean LD50 value (±SD) (B-CLL cells [2]; [4]): 0.19 nM; mean LD90 value (±SD) (B-CLL cells [2]; [4]): 38.63 nM
